Source: ChEMBL document CHEMBL5154658, “Discovery of quinazoline derivatives as novel small-molecule inhibitors targeting the programmed cell death-1/programmed cell death-ligand 1 (PD-1/PD-L1) interaction” (Eur J Med Chem, 2022)

What was measured:
[1] = biological target: T1, Programmed cell death protein 1/Programmed cell death 1 ligand 1 (Homo sapiens, UniProt Q15116+Q9NZQ7); assay: Inhibition of Tag2-PD-1/Tag1-PD-L1 (unknown origin) protein-protein interaction incubated for 15 mins by HTRF assay; format: protein-complex assay
T1 sequence (Q15116 whole entry, the tested form may be a part): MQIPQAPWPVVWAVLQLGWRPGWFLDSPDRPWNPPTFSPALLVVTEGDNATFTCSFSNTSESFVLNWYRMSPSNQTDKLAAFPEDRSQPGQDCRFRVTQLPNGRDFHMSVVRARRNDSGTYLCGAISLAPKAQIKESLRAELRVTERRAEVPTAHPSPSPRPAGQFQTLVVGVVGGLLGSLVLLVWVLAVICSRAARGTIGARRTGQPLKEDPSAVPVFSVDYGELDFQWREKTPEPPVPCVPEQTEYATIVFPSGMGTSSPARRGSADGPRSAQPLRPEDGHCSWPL
T1 sequence (Q9NZQ7 whole entry, the tested form may be a part): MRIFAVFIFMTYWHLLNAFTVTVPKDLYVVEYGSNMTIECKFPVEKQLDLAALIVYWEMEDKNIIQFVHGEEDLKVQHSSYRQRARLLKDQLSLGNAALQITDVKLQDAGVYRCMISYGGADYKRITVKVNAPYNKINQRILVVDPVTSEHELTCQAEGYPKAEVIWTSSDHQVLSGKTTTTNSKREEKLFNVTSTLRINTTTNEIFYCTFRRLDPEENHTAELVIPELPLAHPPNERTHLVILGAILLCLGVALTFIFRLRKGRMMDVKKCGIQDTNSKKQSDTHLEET

[2] = biological target: T1, Programmed cell death protein 1/Programmed cell death 1 ligand 1; assay: Inhibition of C-terminal-Fc-tagged human recombinant PD-1 (25 to 167 residues)/C-terminal-His-tagged recombinant human PD-L1 (19 to 238 residues) interaction incubated for 40 mins by HTRF assay; format: protein-complex assay
[3] = biological target: Programmed cell death 1 ligand 1 (Homo sapiens) (UniProt Q9NZQ7); assay: Binding affinity to human PD-L1 assessed as change in melting temperature at 10 uM by thermal shift based DSF assay
Chain of Programmed cell death 1 ligand 1 (Homo sapiens) (Q9NZQ7 whole entry): as the sequence (Q9NZQ7 whole entry, the tested form may be a part) above

[4] = biological target: Programmed cell death 1 ligand 1 (Homo sapiens) (UniProt Q9NZQ7); assay: Binding affinity to human PD-L1 assessed as change in melting temperature at 20 uM by thermal shift based DSF assay
[5] = biological target: Programmed cell death 1 ligand 1 (Homo sapiens) (UniProt Q9NZQ7); assay: Binding affinity to human PD-L1 assessed as change in melting temperature at 50 uM by thermal shift based DSF assay
[6] = biological target: T1, Programmed cell death protein 1/Programmed cell death 1 ligand 1; assay: Inhibition of PD-1/PD-L1 interaction in CHO cells expressing PD-Ll/TCR cocultured with human Jurkat cells expressing PD-1 assessed as T-cell activation by measuring maximum relative luminescence intensity value at 10 uM incubated for 6 hrs by luciferase reporter gene assay; format: cell-based
[7] = Cytotoxicity against human PBMC cells assessed as reduction in cell growth incubated for 72 hrs by CCK8 assay; format: toxicity, cell-based
[8] = biological target: T1, Programmed cell death protein 1/Programmed cell death 1 ligand 1; assay: Inhibition of PD-1/PD-L1 interaction in human CD3+ T-cells co-cultured with Hep3B cells expressing OS8/hPD-L1 assessed as increase in IFN-gamma secretion measured after 72 hrs by ELISA; conditions: dose 0.082-2.222 µM, DDE = dose-dependent effect
[9] = biological target: T1, Programmed cell death protein 1/Programmed cell death 1 ligand 1; assay: Inhibition of PD-1/PD-L1 interaction in human CD3+ T-cells co-cultured with Hep3B cells expressing OS8/hPD-L1 assessed as increase in IFN-gamma secretion at 2.22 uM measured after 72 hrs by ELISA; parameters: scale not given: the % may be the effect or the level left
[10] = Cytotoxicity against human PBMC cells assessed as reduction in cell growth at 0.003 to 2.22 uM incubated for 72 hrs by CCK8 assay; format: toxicity, cell-based; conditions: dose 0.003-2.22 µM
[11] = Cytotoxicity against human PBMC cells assessed as reduction in cell growth at >2.22 uM incubated for 72 hrs by CCK8 assay; format: toxicity, cell-based
[12] = biological target: T1, Programmed cell death protein 1/Programmed cell death 1 ligand 1; assay: Inhibition of PD-1/PD-L1 (unknown origin) interaction; format: protein-complex assay

| SMILES | IC50 [1] [µM] | further results |
| --- | --- | --- |
| N#Cc1cccc(COc2cc(Oc3ncnc4c(-c5ccccc5)cccc34)c(Cl)cc2CNCCO)c1 | 0.0785 |  |
| CC(=O)NCCNCc1cc(Cl)c(Oc2ncnc3c(-c4ccc5c(c4)OCCO5)cccc23)cc1OCc1cncc(C#N)c1 | 0.096 |  |
| N#Cc1cccc(COc2cc(Oc3ncnc4c(-c5ccccc5)cccc34)c(Cl)cc2CN2CCCC[C@@H]2C(=O)O)c1 | > 0.5 |  |
| CC(CO)(CO)NCc1cc(Cl)c(Oc2ncnc3c(-c4ccc5c(c4)OCCO5)cccc23)cc1OCc1cccc(C#N)c1 | 0.0188 |  |
| N#Cc1cccc(COc2cc(Oc3ncnc4c(-c5ccccc5)cccc34)c(Cl)cc2CNC(CO)CO)c1 | 0.0242 |  |
| Cc1c(-c2ccccc2)cccc1-c1nc2cc(CNCCO)ccc2o1 |  | IC50 [2]: ≤ 0.01 µM |
| CC(C)(NCc1cc(Cl)c(Oc2ncnc3c(-c4ccc5c(c4)OCCO5)cccc23)cc1OCc1cccc(C#N)c1)C(=O)O | 0.0886 |  |
| CC(CO)(CO)NCc1cc(Cl)c(Oc2ncnc3c(-c4ccc5c(c4)OCCO5)cccc23)cc1OCc1cncc(C#N)c1 | 0.00157 | ΔTm [3]: 2.35 °C; ΔTm [4]: 3.2 °C; ΔTm [5]: 3.25 °C; RLU [6]: 3120; IC50 at 72 h [7]: 12.4 µM; inhibition [8]: Dde; Activity [9]: 820%; Activity [10]: Non-Toxic; Activity [11]: Toxic |
| N#Cc1cncc(COc2cc(Oc3ncnc4c(-c5ccccc5)cccc34)c(Cl)cc2CNCCO)c1 | 0.171 |  |
| N#Cc1cncc(COc2cc(Oc3ncnc4c(-c5ccc6c(c5)OCCO6)cccc34)c(Cl)cc2CNCCO)c1 | 0.0122 |  |
| N#Cc1cccc(COc2cc(Oc3ncnc4c(-c5ccc6c(c5)OCCO6)cccc34)c(Cl)cc2CN2CCCC[C@@H]2C(=O)O)c1 | 0.411 |  |
| N#Cc1cccc(COc2cc(Oc3ncnc4c(-c5ccc6c(c5)OCCO6)cccc34)c(Cl)cc2CNC(CO)CO)c1 | 0.0311 |  |
| CC(=O)NCCNCc1cc(Cl)c(Oc2ncnc3c(-c4ccc5c(c4)OCCO5)cccc23)cc1OCc1cccc(C#N)c1 | > 0.5 |  |
| N#Cc1cccc(COc2cc(Oc3ncnc4c(-c5ccc6c(c5)OCCO6)cccc34)c(Cl)cc2CN2CCCC[C@H]2C(=O)O)c1 | > 0.5 |  |
| CC(CO)(CO)NCc1cc(Cl)c(Oc2ncnc3c(-c4ccccc4)cccc23)cc1OCc1cccc(C#N)c1 | 0.0229 |  |
| CC(C)(NCc1cc(Cl)c(Oc2ncnc3c(-c4ccccc4)cccc23)cc1OCc1cccc(C#N)c1)C(=O)O | 0.15 |  |
| CC(=O)NCCNCc1cc(Cl)c(Oc2ncnc3c(-c4ccccc4)cccc23)cc1OCc1cccc(C#N)c1 | > 0.5 |  |
| CC(CO)(CO)NCc1cc(Cl)c(Oc2ncnc3c(-c4ccccc4)cccc23)cc1OCc1cncc(C#N)c1 | 0.0325 |  |
| CC(C)OC(=O)[C@H](CO)NCc1cc(Cl)c(OCc2cccc(-c3ccc4c(c3)OCCO4)c2Br)cc1OCc1cccnc1 |  | IC50 [12]: 0.01 µM |
| CC(=O)NCCNCc1cc(Cl)c(Oc2ncnc3c(-c4ccccc4)cccc23)cc1OCc1cncc(C#N)c1 | 0.187 |  |
| N#Cc1cncc(COc2cc(Oc3ncnc4c(-c5ccccc5)cccc34)c(Cl)cc2CNC(CO)CO)c1 | 0.0576 |  |
| N#Cc1cncc(COc2cc(Oc3ncnc4c(-c5ccc6c(c5)OCCO6)cccc34)c(Cl)cc2CNC(CO)CO)c1 | 0.00537 | RLU [6]: 3370; IC50 at 72 h [7]: 5.31 µM; inhibition [8]: Dde; Activity [9]: 654%; Activity [10]: Non-Toxic; Activity [11]: Toxic |
| N#Cc1cccc(COc2cc(Oc3ncnc4c(-c5ccc6c(c5)OCCO6)cccc34)c(Cl)cc2CNCCO)c1 | 0.0224 |  |
| N#Cc1cccc(COc2cc(Oc3ncnc4c(-c5ccccc5)cccc34)c(Cl)cc2CN2CCCC[C@H]2C(=O)O)c1 | > 0.5 |  |
